Assay results as given in ChEMBL document CHEMBL1201862, “PubChem BioAssay data set” (2004).
Active and inactive are the calls of the source.

Assays:
[1] = biological target: T1, Heat shock factor protein 1 (Mus musculus, UniProt P38532); test: HSF1 potentiators in luciferase reporter cells, confirmation, cell-based, NIH3T3, luminescence, dose retest (AID 435004); format: functional;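 note: stress induced by proteasome inhibitor MG132 added 30 min after compound; luciferase reporter driven by HSF1 response element in NIH3T3 cells; actives raise luminescence as potentiators of the MG132 stress response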
T1 sequence (P38532 whole entry): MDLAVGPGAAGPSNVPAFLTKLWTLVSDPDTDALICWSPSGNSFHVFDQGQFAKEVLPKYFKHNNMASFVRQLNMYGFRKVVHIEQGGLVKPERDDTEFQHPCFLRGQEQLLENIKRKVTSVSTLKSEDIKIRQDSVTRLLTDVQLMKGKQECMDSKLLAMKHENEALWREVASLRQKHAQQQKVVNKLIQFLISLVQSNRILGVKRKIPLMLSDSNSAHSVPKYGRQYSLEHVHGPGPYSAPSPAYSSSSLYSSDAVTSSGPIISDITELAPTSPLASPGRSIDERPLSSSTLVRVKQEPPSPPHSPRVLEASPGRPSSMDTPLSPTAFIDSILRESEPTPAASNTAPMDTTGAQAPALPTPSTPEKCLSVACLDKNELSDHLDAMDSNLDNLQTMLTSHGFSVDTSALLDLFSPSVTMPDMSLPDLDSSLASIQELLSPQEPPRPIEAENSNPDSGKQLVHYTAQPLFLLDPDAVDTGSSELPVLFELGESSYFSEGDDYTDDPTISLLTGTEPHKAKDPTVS

[2] = SNU-C1 cell viability reduction, dose response, CellTiter-Glo luminescence (AID 1117323); format: functional, cell-based
[3] = cytotoxicity toward HCT116 cells – cell-based, CellTiter-Glo luminescence, IC50, dose response (AID 1117332); format: functional; details: HCT-116
[4] = cytotoxicity toward DRD oncogenic fibroblasts, dose response, cell-based, non-viral oncogenic, luminescence (AID 1934); format: functional; details: Homo sapiens
[5] = biological target: T2, Apoptotic protease-activating factor 1 (Homo sapiens, UniProt O14727); format: functional
T2 sequence (O14727 whole entry): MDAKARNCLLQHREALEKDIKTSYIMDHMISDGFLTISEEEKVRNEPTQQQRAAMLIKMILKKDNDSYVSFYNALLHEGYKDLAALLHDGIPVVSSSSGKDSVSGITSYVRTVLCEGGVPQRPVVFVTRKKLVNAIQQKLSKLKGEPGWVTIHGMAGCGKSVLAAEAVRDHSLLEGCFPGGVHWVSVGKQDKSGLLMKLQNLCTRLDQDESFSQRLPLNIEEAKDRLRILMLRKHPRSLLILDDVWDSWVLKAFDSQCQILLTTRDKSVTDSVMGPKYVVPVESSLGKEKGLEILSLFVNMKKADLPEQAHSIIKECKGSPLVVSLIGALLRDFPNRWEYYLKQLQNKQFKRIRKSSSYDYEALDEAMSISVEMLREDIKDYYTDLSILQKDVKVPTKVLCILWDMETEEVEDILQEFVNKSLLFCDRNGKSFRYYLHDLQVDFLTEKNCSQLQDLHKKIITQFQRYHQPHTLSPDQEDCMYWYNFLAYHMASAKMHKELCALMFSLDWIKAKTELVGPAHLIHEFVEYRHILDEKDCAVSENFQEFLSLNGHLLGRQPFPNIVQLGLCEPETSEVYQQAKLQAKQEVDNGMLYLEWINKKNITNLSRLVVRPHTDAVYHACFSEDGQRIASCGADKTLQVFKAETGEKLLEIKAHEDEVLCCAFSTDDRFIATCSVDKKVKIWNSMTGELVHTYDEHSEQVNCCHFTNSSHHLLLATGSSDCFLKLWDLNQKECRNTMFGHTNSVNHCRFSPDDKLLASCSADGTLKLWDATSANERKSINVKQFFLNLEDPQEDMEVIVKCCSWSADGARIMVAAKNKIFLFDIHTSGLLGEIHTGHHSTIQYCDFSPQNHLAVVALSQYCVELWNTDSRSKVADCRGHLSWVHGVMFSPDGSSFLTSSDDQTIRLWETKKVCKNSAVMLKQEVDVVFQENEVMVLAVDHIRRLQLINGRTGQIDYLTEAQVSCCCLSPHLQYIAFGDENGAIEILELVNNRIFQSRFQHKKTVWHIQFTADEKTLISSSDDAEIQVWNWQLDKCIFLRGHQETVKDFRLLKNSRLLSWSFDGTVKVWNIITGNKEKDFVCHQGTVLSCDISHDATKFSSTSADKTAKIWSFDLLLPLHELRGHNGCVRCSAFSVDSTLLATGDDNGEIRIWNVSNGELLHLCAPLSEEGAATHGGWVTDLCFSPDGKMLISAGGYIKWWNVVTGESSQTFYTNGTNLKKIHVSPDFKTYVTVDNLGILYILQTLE

[6] = biological target: T3, Sentrin-specific protease 6 (Homo sapiens, UniProt Q9GZR1); format: functional
T3 sequence (Q9GZR1 whole entry): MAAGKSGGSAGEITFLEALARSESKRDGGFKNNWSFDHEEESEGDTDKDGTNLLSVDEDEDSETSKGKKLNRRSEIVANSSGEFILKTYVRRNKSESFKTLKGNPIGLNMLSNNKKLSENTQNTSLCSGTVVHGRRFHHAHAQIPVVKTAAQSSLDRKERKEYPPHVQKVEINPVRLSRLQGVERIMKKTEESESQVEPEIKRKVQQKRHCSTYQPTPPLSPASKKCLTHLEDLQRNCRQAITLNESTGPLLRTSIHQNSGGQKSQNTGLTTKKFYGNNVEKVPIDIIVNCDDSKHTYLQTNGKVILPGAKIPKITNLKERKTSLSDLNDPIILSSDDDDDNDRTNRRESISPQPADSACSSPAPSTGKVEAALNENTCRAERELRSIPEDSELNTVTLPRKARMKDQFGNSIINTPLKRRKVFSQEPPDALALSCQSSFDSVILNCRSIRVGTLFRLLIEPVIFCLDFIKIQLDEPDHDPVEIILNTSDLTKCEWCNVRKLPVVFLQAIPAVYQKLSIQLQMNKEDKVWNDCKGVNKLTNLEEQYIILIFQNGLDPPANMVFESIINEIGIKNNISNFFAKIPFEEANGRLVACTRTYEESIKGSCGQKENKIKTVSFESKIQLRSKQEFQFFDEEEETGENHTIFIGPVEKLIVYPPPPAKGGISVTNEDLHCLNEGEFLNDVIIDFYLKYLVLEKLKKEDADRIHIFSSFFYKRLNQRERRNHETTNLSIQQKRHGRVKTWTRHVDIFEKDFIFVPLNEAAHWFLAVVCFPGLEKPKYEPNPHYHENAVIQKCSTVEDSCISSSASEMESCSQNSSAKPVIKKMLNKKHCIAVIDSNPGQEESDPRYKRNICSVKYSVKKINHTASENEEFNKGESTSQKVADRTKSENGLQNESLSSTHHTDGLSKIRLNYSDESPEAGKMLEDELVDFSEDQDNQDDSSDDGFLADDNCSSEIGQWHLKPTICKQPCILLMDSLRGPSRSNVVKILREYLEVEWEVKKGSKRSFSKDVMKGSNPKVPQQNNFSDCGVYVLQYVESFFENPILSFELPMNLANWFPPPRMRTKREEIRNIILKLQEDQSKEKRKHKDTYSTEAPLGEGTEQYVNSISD

[7] = biological target: T3, Sentrin-specific protease 6; test: SAR Analysis of small molecule inhibitors of Sentrin-specific protease 6 (SENP6) using a Luminescent assay. [Related pubchem assays (depositor defined):AID2582, AID2599]; format: functional

| IC50 [5] | IC50 [6] | IC50 [7] | SMILES | EC50 [1] | IC50 [2] | IC50 [3] | EC50 [4] |
| --- | --- | --- | --- | --- | --- | --- | --- |
| – | – | – | Cc1cc2nc3ccc(N(C)C)cc3[s+]c2cc1N [TOLONIUM CHLORIDE] | > 260 µM (inactive) | 5.56 µM (inactive) | 2.78 µM (active) | 8.46 µM (inconclusive) |
| 15 µM (active) | 3.96 µM (active) | – | CCCOc1cc2c(C#N)c(N3CCCC3)nc(N)c2c(N)n1 | – | – | – | – |
| 2.56 µM (active) | – | 10.5 µM (active) | Oc1ccc(/C=N/Nc2cc(N3CCCC3)nc(N3CCCC3)n2)cc1O | – | – | – | – |
